These are literature values, as cited in patent EP3957303A1, “PHARMACEUTICAL COMBINATION PREPARATION COMPRISING EZETIMIBE AND LOSARTAN” (Hanmi Pharm. Co., Ltd., priority 2019, dated 2020).

Turning to `O=C1[C@H](CC[C@H](O)c2ccc(F)cc2)[C@@H](c2ccc(O)cc2)N1c1ccc(F)cc1` [Ezetimibe, 1-(4-fluorophenyl)-3(R)-[3-(4-fluorophenyl)-3(S)-hydroxypropyl]-4(S)-(4-hydroxyphenyl)-2-azetidinone], the saturation solubility result (under acidic to weakly basic conditions such as body fluids) is given as “about 1 ppm”. Further, the solubility in water result (water) is “practically insoluble in water”.
